Assay results published in patent US8003572B2 (priority 2004, dated 2011).

Experiments:
[1] = system: C85 colorectal adenocarcinoma cells; assay: Clonogenic assay with C85 colorectal adenocarcinoma cells; format: cell-based, human
Method: Compounds identified by structure based screening were assayed in a clonogenic assay with C85 colorectal adenocarcinoma cells. Briefly, C85 cells were plated at 200 cells per well in six well plates. Seventy-two hours after plating, compounds 05RB, 0BWP, 0FZK, 0RZL, HBS01, 01LX, 0464, 1BJO AND 27NT were added at various concentrations (See Table 1). Colonies were counted 96 hours after treatment and IC50 concentrations determined (Table 1).

MCF-7 = assay: MTS cell proliferation assay in MCF-7; format: cell-based; conditions: Homo sapiens, MCF7
Method: (§1) In order to determine the IC50 values of HBS01 an MTS assay was performed on MCF-7 and MCF-7/ADR (adramycin resistance) cell lines. Cells were plated in a 96 well plate at 5,000 cells/well. After plating, cells were treated for 96 hours with either HBS01, methotrexate (MTX), doxyrubicin (DOX), or 5-Fluorouracil (5FU) and an MTS assay was performed according to manufacturer's protocol with the CELL TITER 96 AQ non-radioactive cell proliferation assay kit (Promega, Cat. No. G5421). Viable cells were quantitated based on absorbance at 490 nm. […] Thus, HBS01 was an extremely potent inhibitor of MCF-7 and MCF-7Adr proliferation.

[2] = system: MCF-7/ADR (adramycin resistance) cell line; assay: MTS cell proliferation assay in MCF-7/ADR; format: cell-based; conditions: Homo sapiens, NCI/ADR-RES
Method: as §1

[3] = system: C85 human colorectal cancer cells; assay: C85 colorectal tumors in nude mice; format: in vivo
Method: (§2) C85 human colorectal cancer cell growth was assessed in nude mice (NIH, Cr:(MCr)-Fox1nu(nu/nu homogygous), Taconic Inc., Germantown, N.Y.) treated or pretreated with HBS01 over a 19 day period. Briefly, pretreated animals were administered three daily doses of HBS01 at 17 mg/Kg given on day −3, −2, and −1 prior to tumor cell injection on day 0. No further treatment was given to the pretreated animals. Nude mice were injected in the flanks with 1 million C85 human colorectal cancer cells. Treated animals were treated with daily injections of HBS01 at 17 mg/kg per at days 10, 11, 12, 15, 16 and 17 following appearance of palpable tumors on day 10.
Tumor diameters were measured with calipers every alternate day and tumor volumes were calculated by ½ab^2 where a is the larger diameter (Friedman, H S., et al. Cancer Res. 46, 2827-2833). The results are shown in FIG. 3 as tumor volume in cm^3.

[4] = system: MCF-7 breast cancer cells; assay: MCF-7 breast cancer tumors in nude mice; format: in vivo
Method: as §2, with “MCF-7 breast” for “C85 human colorectal”, “31 days.” for “a 19 day period.”, “200,000 MCF-7 breast” for “1 million C85 human colorectal”, “10. Tumor diameters were measured with calipers every alternate day and tumor volumes were calculated by ½ab^2 where a is the larger diameter (Friedman, H S., et al. Cancer Res. 46, 2827-2833). The results are shown in FIG. 4 as tumor volume in cm^3.” for “10.”

EGFP marked C85 cells = assay: Metastatic growth of EGFP marked C85 cells in nude mice; format: in vivo; conditions: pre-treated 14.5 mg/kg every 24 hrs for five days; ten days post-C85 tail vein injection
Method: The effect of HBS01 on the metastatic growth of enhanced green fluorescent protein (EGFP) marked C85 cells was assayed in nude mice (NIH, Cr:(MCr)-Fox1nu(nu/nu homogygous), Taconic Inc., Germantown, N.Y.). Briefly, nude mice were pre-treated with 14.5 mg/kg of HBS01 every 24 hrs for five days. At the completion of pre-treatment the pre-treated or control non-treated mice were injected in the tail vein with 1×10^6 EGFP marked C85 cells. Ten days post-C85 injection, the mice were dissected and tumor size assessed based on intravital fluorescence imaging and liver biopsies.

[5] = system: protein ubiquination pathways; assay: Protein ubiquination in C85 cell lysates (HA-tagged ubiquitin Western blot); format: cell-based; conditions: C85 cells treated for 24 or 48 hrs
Method: Briefly, C85 cells were plated at 200 cells per well in six well plates.
Cells were either untreated (controls) or treated for 24 or 48 hrs with HBS01. After the treatment period, cells were harvested and extracts were prepared from the cells by freeze fracturing in liquid nitrogen in breakage buffer (50 mM Tris pH 7.5, 1 mM DTT, “Complete” protease inhibitor cocktail (Roche, Cat.# 1697498), 10 μM MG132). Roughly […] of total protein extracts in 300 μl of breakage buffer was supplemented with 20 μg of PHH-Ub (HA and His6 tagged Ubiquitin) and incubated at 30° C. for 60 min. 3×SDS-PAGE sample buffer was added to 40 μl of this reaction and boiled for 3 min. The extracts were run on 12% Laemmli gels that were either stained with Coomassie Blue R-250 or blotted with HRP conjugated 12CA5 monoclonal antibody (Roche, Inc., Indianapolis, Ind.) and visualized by ECL, with the ECL plus western blot detection kit (Amersham Biosciences, Piscataway, N.J.) according to manufacturers instructions.

cyclin-B = assay: Ubiquination of cyclin-B in C85 cell lysates (Western blot); format: cell-based; conditions: C85 cells treated for 24 hrs
Method: The ability of HBS01 to inhibit protein ubiquination of cyclin-B was assayed in C85 cell lines. Briefly, C85 cells were plated at 200 cells per well in six well plates. Cells were either untreated (controls) or treated for 24 hrs with HBS01. After the treatment period, cells were harvested and extracts were prepared from the cells by freeze fracturing in liquid nitrogen in breakage buffer (50 mM Tris pH 7.5, 1 mM DTT, “Complete” protease inhibitor cocktail (Roche, Cat.# 1697498), 10 μM MG132). Roughly […] of total protein extracts in 300 μl of breakage buffer was supplemented with 20 μg of PHH-Ub (HA and His6 tagged Ubiquitin) and incubated at 30° C. for 60 min. 3×SDS-PAGE sample buffer was added to 40 μl of this reaction and boiled for 3 min. The extracts were run on 12% Laemmli gels and Western Blots were performed with anti-cyclin-B antibody (Santa Cruz Biotechnology, Inc., Santa Cruz, Calif.). Results were visualized by ECL, with the ECL plus western blot detection kit (Amersham Biosciences, Piscataway, N.J.) according to manufacturers instructions.

[6] = Maximum tolerated dose in mice; conditions: nude, mouse, in vivo
[7] = Homo sapiens, C85 cells, colonies counted 96 hours after treatment
[8] = pretreated animals, 17 mg/Kg on day -3, -2 and -1 prior to tumor cell injection

NC(=O)c1ccc([N+](=O)[O-])cc1Cl [Compound 0BWP, 2-Chloro-4-nitrobenzamide]
IC50 [1, 7]: 600000 nM

Oc1cc(Cl)cnc1O [Compound 0FZK, 5-chloro-2,3-dihydroxypyridine]
IC50 [1, 7]: 175000 nM

CC1CN(c2ccccc2)NC1=O (centres unmarked) [Compound 0RZL, 1-Phenyl-4-methyl-3-pyrazolidone]
IC50 [1, 7]: 50000 nM

CC(=O)Nc1ccccc1O [Compound 01LX, 2-Acetamidophenol]
IC50 [1, 7]: 375000 nM

Nc1ccc(Nc2ccccc2)cc1 [Compound 05RB, N-Phenyl-4-phenylenediamine]
IC50 ([1]; C85 cells, colonies counted 96 hours after treatment): 37500 nM

Nc1ccc2cn[nH]c2c1 [Compound 0464, 6-AMINOINDAZOLE]
IC50 [1, 7]: 70000 nM

NCC1CCNCC1 [HBS01, 4-(Aminomethyl)piperidine]
IC50 ([1]; Homo sapiens, C85 cells, colonies counted 96 hours after treatment, * denotes nM): 30 nM
IC50 ([1]; human colon cancer cell line C85): 30 nM
IC50 (MCF-7; MCF-7, treated for 96 hours, MTS): 0.03 µM
IC50 (MCF-7; breast cancer cell line MCF-7): 0.03 µM
IC50 ([2]; MCF-7Adr, treated for 96 hours, MTS): 0.03 µM
IC50 ([2]; breast cancer cell line MCF-7Adr): 0.03 µM
tumor growth (tumor volume) [3, 8]: delayed tumor growth
growth of established tumors (tumor volume) ([3]; treated animals, 17 mg/kg daily at days 10, 11, 12, 15, 16 and 17, 17 mg/kg): significantly inhibited the growth of established tumors
onset of tumors (tumor volume) [4, 8]: delayed the onset of MCF-7 tumors
tumor growth (tumor volume) ([4]; treated animals, 17 mg/kg daily at days 10, 11, 12, 15, 16 and 17): significantly inhibited tumor growth
metastatic tumors (EGFP marked C85 cells): metastatic tumors were not detectable
general ubiquitin conjugation (ubiquitin intensities and banding patterns) [5]: general inactivation of the ubiquitin conjugation pathways did not occur
ubiquination of cyclin-B (cyclin-B): selectively inhibited the ubiquination of cyclin-B
MTD [6]: 1400 mg/kg
